# Experimental data published in patent US8372830B2, “Methods for using vasopressin antagonists with anthracycline chemotherapy agents to reduce cardiotoxicity and/or improve survival” (Otsuka Pharmaceutical Co., Ltd., priority 2007, dated 2013).
# Assays:
# [1] = tested on: doxorubicin-induced mortality; assay: DDAVP infusion and doxorubicin-induced mortality (Example 2); assay type: in vivo, rat; conditions: DDAVP 1 ng/h s.c. infusion 14 days + doxorubicin 6 x 2.5 mg/kg i.p.; vs doxorubicin alone; p<0.001 Log-Rank; FIG. 4
# Experimental: The present inventors investigated whether activation of V2 receptors can accelerate doxorubicin-induced mortality. A continuous subcutaneous infusion of 1 ng/h of DDAVP (deamino-Cyst, D-Arg-vasopressin) per animal was accomplished using an osmotic minipump (infusion rate: 0.5 μL/h, ALZET model 2002, DURECT Corporation, Cupertino, Calif.) for 14 days. On day 0 an osmotic minipump was implanted subcutaneously. The sham control rats had the same surgical procedure but with only saline in the minipump. The rats were then divided into two groups: one with six intraperitoneal injections of doxorubicin (2.5 mg/kg) during a 13 day period, and one with injections of saline. The rats were fed with liquid food throughout the experiment. With the continuous infusion of DDAVP, liquid food feeding increases systemic volume overload and edema, conditions often observed in CHF patients.
# [2] = tested on: doxorubicin toxicity under elevated vasopressin condition
# Experimental: This condition may be relevant to certain cancer patients who have elevated vasopressin release and are undergoing chemotherapy, such as with doxorubicin.
# Two groups of rats were studied and the protocol is described in FIG. 13. Rats were intravenously injected with doxorubicin (3 mg/kg) 3 times once every other day for a total of 9 mg/kg (same as described in Example 4). One group (Dox+DDAVP) was given vehicle and the other group (Dox+DDAVP+Tol) was administered tolvaptan (10 mg/kg) once daily. An osmotic minipump (infusion rate: 0.15 μl/h, ALZET model 2006, ALZA Corporation) was implanted in each rat for continuous subcutaneous infusion of 1 ng/h of DDAVP (a vasopressin V2 agonist [deamino-Cys1, D-Arg8]-vasopressin).
# [3] = tested on: total white blood cell (WBC) and lymphocyte (LY) counts; assay: Myelosuppression: blood cell counts after doxorubicin (Example 3)
# Experimental: (§1) To determine whether tolvaptan affects the plasma concentration of doxorubicin, plasma samples were obtained after the first (day 1) and sixth (day 13) injection of doxorubicin with vehicle or tolvaptan, and the plasma concentration of doxorubicin was measured.
# Anthracyclines including doxorubicin are known to cause myelosuppression due to their ability to intercalate into DNA, and to inhibit new protein synthesis and cell proliferation in the bone marrow (similar mechanisms are involved in the inhibition of cancer cell proliferation). Myelosuppression was used as an index of the ability of doxorubicin to inhibit cell proliferation and anti-cancer effect. […] Blood samples were taken after 1 or 13 days of treatment with doxorubicin.
# left ventricle [4] = assay: Echocardiography of cardiac function, rat model with intravenous injection of doxorubicin (Example 4); assay type: in vivo
# Experimental: In a clinical setting, doxorubicin is administered intravenously to cancer patients. Furthermore, the major side effect associated with doxorubicin treatment is cardiac dysfunction and development of CHF. Therefore, the effect of tolvaptan on CHF was evaluated in a rat model with intravenous injection of doxorubicin. Cardiac function was determined using high resolution ultrasonograpy. Rats were divided into 3 groups as described in Table 2, and observed for 10 weeks. [table] Control rats were not treated. […] Rats were given either vehicle or tolvaptan (10 mg/kg) daily starting on the first day of doxorubicin injection. On the days with co-administration of doxorubicin and tolvaptan, tolvaptan was given by oral gavage 45 min prior to the intravenous injection of doxorubicin. Cardiac function was evaluated using echocardiography (Vevo 770, Visualsonics Inc, Toronto, Canada). Echo images were taken once a week for 10 consecutive weeks. Rats were anesthetized with Isoflurane and parasternal long and short axis echo images were recorded. Offline analysis of cardiac function (ejection fraction and fraction shortening) and anatomic data of the heart (LV end diastolic diameter and volume) were performed. At the end of the 10-week period, cardiac contractility (LVdp/dtmax/ip) was measured invasively.
# [5] = tested on: doxorubicin-induced cardiac toxicity and animal death; assay: Survival of rats given repeated intraperitoneal injections of doxorubicin (Example 1); assay type: in vivo, rat; conditions: tolvaptan 10 mg/kg orally daily
# Experimental: Repeated injection of doxorubicin in animals is known to cause cardiac injury and to increase mortality. A study was designed to investigate the effect of tolvaptan on doxorubicin-induced cardiac toxicity and animal death. Four groups of rats were evaluated; all with 6 injections of doxorubicin (2.5 mg/kg each) during a two week period. To test the ability of tolvaptan to prevent toxicity, tolvaptan (10 mg/kg orally) daily was given to one group of rats (Tol+Dox). Another group of rats was given vehicle only (Veh+Dox). To test the ability of tolvaptan to reverse the toxicity, tolvaptan (10 mg/kg orally) daily was given to one group of rats, starting after the completion of doxorubicin administration (Dox+Tol). Another group of rats was given vehicle only (Dox+Veh). Table 1 summarizes the group designations:
# Survival was analyzed using Kaplan-Meier survival analysis with the Log-Rank test.
# [6] = Plasma concentration of doxorubicin with vehicle or tolvaptan (Example 3); assay type: in vivo, rat; conditions: after first (day 1) and sixth (day 13) doxorubicin injection; tolvaptan vs vehicle; FIG. 6
# Experimental: as §1
# left ventricle [7] = assay: Invasive hemodynamic measurement of cardiac contractility at end of 10 weeks (Example 4); assay type: in vivo, rat; conditions: tolvaptan-treated vs vehicle-treated doxorubicin rats, FIG. 12
# Experimental: Control rats were not treated. For groups 2 and 3 with doxorubicin treatment, rats were given three injections intravenously of doxorubicin (3 mg/kg each) every other day (total dose of 9 mg/kg). […] Rats were given either vehicle or tolvaptan (10 mg/kg) daily starting on the first day of doxorubicin injection. On the days with co-administration of doxorubicin and tolvaptan, tolvaptan was given by oral gavage 45 min prior to the intravenous injection of doxorubicin.
# Invasive hemodynamic measurements were performed at the end of the 10 week period.
# doxorubicin-treated rats = conditions: antagonist given several weeks after doxorubicin, previous study (ref. 25); cited from earlier work
# [8] = thirteen-day treatment with doxorubicin, FIG. 7
compound,measurement,setting,value
"NC(=O)CC[C@@H]1NC(=O)[C@H](Cc2ccccc2)NC(=O)[C@H](Cc2ccc(O)cc2)NC(=O)CCSSC[C@@H](C(=O)N2CCC[C@H]2C(=O)N[C@H](CCCN=C(N)N)C(=O)NCC(N)=O)NC(=O)[C@H](CC(N)=O)NC1=O [DDAVP, [deamino-Cys1, D-Arg8]-vasopressin]",death rate from doxorubicin,[1],significantly accelerated
same,toxicity of doxorubicin under DDAVP infusion,"[2]; DDAVP 1 ng/h s.c. infusion + doxorubicin 3 x 3 mg/kg i.v., FIG. 14",very toxic
same,time in which rats died,"[2]; DDAVP 1 ng/h s.c. infusion + doxorubicin 3 x 3 mg/kg i.v., vehicle",2 weeks
COc1cccc2c1C(=O)c1c(O)c3c(c(O)c1C2=O)C[C@@](O)(C(=O)CO)C[C@@H]3O[C@H]1C[C@H](N)[C@H](O)[C@H](C)O1 [doxorubicin],blood cell counts,[3]; one day treatment with doxorubicin,did not affect
same,lymphocyte (LY) count,[3]; [8],significantly reduced
same,total white blood cell (WBC) count,[3]; [8],significantly reduced
same,fractional shortening of the left ventricle,"left ventricle [4]; doxorubicin 3 x 3 mg/kg i.v. every other day, weekly echo for 10 weeks, FIG. 8",progressively decreased
same,ejection fraction of the left ventricle,"left ventricle [4]; doxorubicin 3 x 3 mg/kg i.v. every other day, weekly echo for 10 weeks, FIG. 9",progressively decreased
same,left ventricle diastolic volume,"left ventricle [4]; doxorubicin 3 x 3 mg/kg i.v., weight adjusted, FIG. 10",progressively increased
same,left ventricle diastolic diameter,"left ventricle [4]; doxorubicin 3 x 3 mg/kg i.v., weight adjusted, FIG. 11",progressively increased
"Cc1ccccc1C(=O)Nc1ccc(C(=O)N2CCCC(O)c3cc(Cl)ccc32)c(C)c1 (centres unmarked) [tolvaptan, 7-chloro-5-hydroxy-1-[2-methyl-4-(2-methylbenzoyl-amino)benzoyl]-2,3,4,5-tetrahydro-1H-benzazepine]",delay of rat death,"[5]; initiated after completion of 6 doxorubicin injections, 5 rats per group, FIG. 2",only a small delay
same,protective effect on mortality,"[5]; initiated after completion of 6 doxorubicin injections, FIG. 2",largely lost
same,"mortality rate (Kaplan-Meier survival analysis, Log-Rank test)","[5]; starting with first doxorubicin injection (6 x 2.5 mg/kg i.p.), 12 weeks, vs vehicle, p<0.001, FIG. 1",significantly reduced
same,effect on plasma concentration of doxorubicin,[6],did not affect
same,effect on the myelosuppressive effect of doxorubicin,"[3]; rat, in vivo",did not affect
same,"cardiac function (fractional shortening, ejection fraction)","left ventricle [4]; tolvaptan 10 mg/kg orally daily from first day of doxorubicin, vs vehicle, FIGS. 8 and 9",significantly improved
same,remodeling process of the left ventricle,"left ventricle [4]; tolvaptan 10 mg/kg orally daily with doxorubicin, FIGS. 10 and 11",slowed
same,contractility index (LVdp/dtmax normalized to instantaneous LV pressure),left ventricle [7],higher
same,survival (Kaplan-Meier),"[2]; tolvaptan 10 mg/kg once daily, Dox+DDAVP+Tol vs Dox+DDAVP, FIG. 14",significantly improved
Cc1ccccc1C(=O)Nc1ccc(C(=O)N2CCCC(N(C)C)c3ccccc32)cc1 (centres unmarked) [OPC-31260],mortality rate,doxorubicin-treated rats,slight but not significant reduction
